Reference: patent publication US20240116985A1, “STAPLED PEPTIDES AND METHODS THEREOF” (priority 2020, published 2024)

Key:
[1] = target: T1, full-length beta-Catenin (Uniprot ID P35222) (Homo sapiens, UniProt P35222); assay: Fluorescence polarization IC50 (beta-catenin / 5FAM-TCF4 10-53 competition); assay type: binding; conditions: fluorescence polarization; read-out: beta-Catenin FP IC50
T1 construct: 10 nM full-length beta-Catenin (Uniprot ID P35222)
T1 sequence (P35222 1-781): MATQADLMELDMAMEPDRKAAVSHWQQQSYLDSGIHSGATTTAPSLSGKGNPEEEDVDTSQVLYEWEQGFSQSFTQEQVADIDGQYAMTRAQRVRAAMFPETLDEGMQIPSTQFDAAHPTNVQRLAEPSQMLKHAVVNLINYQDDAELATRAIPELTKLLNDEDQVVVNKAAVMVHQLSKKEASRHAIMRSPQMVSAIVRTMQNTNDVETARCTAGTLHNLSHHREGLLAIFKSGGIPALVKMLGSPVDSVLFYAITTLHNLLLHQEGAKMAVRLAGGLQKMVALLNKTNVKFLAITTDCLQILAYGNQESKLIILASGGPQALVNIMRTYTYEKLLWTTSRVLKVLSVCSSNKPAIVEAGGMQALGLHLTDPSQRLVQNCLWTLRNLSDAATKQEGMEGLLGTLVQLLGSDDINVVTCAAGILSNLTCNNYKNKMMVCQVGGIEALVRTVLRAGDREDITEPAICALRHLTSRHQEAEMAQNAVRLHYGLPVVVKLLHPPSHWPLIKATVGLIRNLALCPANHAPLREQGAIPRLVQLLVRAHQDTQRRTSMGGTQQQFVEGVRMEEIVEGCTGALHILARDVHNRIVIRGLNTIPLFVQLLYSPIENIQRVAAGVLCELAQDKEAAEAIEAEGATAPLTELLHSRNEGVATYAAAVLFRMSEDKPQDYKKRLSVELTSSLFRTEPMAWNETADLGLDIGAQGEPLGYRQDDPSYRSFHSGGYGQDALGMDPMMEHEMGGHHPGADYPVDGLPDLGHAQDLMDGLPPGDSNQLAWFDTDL

[2] = target: T2, beta-catenin/TCF4 engagement (Homo sapiens, UniProt P35222); assay: Nano-BRET target engagement assay (B-cat-Halo & TCF4-Luc in HEK293 cells); assay type: cell-based; conditions: absolute IC50; read-out: NanoBRET Abs IC50
T2 construct: expressed in transfected cells; host or cells: HEK293
T2 sequence (P35222 1-781): T1 sequence (P35222 1-781)

Compound	IC50 [1] [nM]	IC50 [2] [µM]
CCNC(=O)[C@H](CCC(N)=O)NC(=O)[C@H](Cc1csc2ccccc12)NC(=O)[C@H](Cc1ccccc1Cl)NC(=O)[C@]12CCN(C1)C(=O)OCCCC=CCCCC1(CCCC=CC[C@]3(CCCN3C(C)=O)C(=O)N[C@@H](CC(=O)O)C(=O)N[C@@H](CC(C)(C)C)C(=O)N1)C(=O)N[C@@H](CC(=O)O)C(=O)N[C@@H](CC(=O)O)C(=O)N[C@@H](C)C(=O)N[C@@H](C)C(=O)N[C@@H](Cc1ccccc1)C(=O)N[C@@H](CC(C)C)C(=O)N2 (stereo partly drawn) [I-1248, Ac-PL3-Asp-Npg-B5-Asp-Asp-Ala-Ala-Phe-Leu-PyrS2-2C1F-BztA-Gln-NHEt]	19	29.7
CC(=O)N1CCC[C@]12CC=CCCCC1(CCCC=CCCCOC(=O)N3CC[C@@](C(=O)N[C@@H](Cc4ccccc4Cl)C(=O)N[C@@H](Cc4csc5ccccc45)C(=O)N[C@H](CO)[C@@H](C)O)(C3)NC(=O)[C@H](CC(C)C)NC(=O)[C@H](Cc3ccccc3)NC(=O)[C@H](C)NC(=O)[C@H](C)NC(=O)[C@H](CC(=O)O)NC(=O)[C@H](CC(=O)O)NC1=O)NC(=O)[C@H](CC(C)(C)C)NC(=O)[C@H](CC(=O)O)NC2=O (stereo partly drawn) [I-1249, Ac-PL3-Asp-Npg-B5-Asp-Asp-Ala-Ala-Phe-Leu-PyrS2-2C1F-BztA-Thro1]	17	25.2
C[C@@H]1NC(=O)[C@H](C)NC(=O)[C@H](CC(=O)O)NC(=O)[C@H](CC(=O)O)NC(=O)C2(CCCC=CCCCOC(=O)N3CC[C@@](C(=O)N[C@@H](Cc4ccccc4Cl)C(=O)N[C@@H](Cc4csc5ccccc45)C(=O)N[C@@H](C(N)=O)[C@H](C)O)(C3)NC(=O)[C@H](CC(N)=O)NC(=O)[C@H](Cc3ccccc3)NC1=O)CCCC=CC[C@]1(CCCN1S(C)(=O)=O)C(=O)N[C@@H](CC(=O)O)C(=O)N[C@@H](CC(C)(C)C)C(=O)N2 (stereo partly drawn) [I-1258, MeSO2-PL3-Asp-Npg-B5-Asp-Asp-Ala-Ala-Phe-Asn-PyrS2-2C1F-BztA-dThr-NH2]	17	> 20
COCCC(=O)N1CCC[C@]12CC=CCCCC1(CCCC=CCCCOC(=O)N3CC[C@@](C(=O)N[C@@H](Cc4ccccc4Cl)C(=O)N[C@@H](Cc4csc5ccccc45)C(=O)N[C@@H](C(N)=O)[C@H](C)O)(C3)NC(=O)[C@H](CC(N)=O)NC(=O)[C@H](Cc3ccccc3)NC(=O)[C@H](C)NC(=O)[C@H](C)NC(=O)[C@H](CC(=O)O)NC(=O)[C@H](CC(=O)O)NC1=O)NC(=O)[C@H](CC(C)(C)C)NC(=O)[C@H](CC(=O)O)NC2=O (stereo partly drawn) [I-1259, MeOPr-PL3-Asp-Npg-B5-Asp-Asp-Ala-Ala-Phe-Asn-PyrS2-2C1F-BztA-dThr-NH2]	10	18.1
CC(=O)N1CCC[C@]12CC=CCCCC1(CCCC=CCCCOC(=O)N3CC[C@@](C(=O)N[C@@H](Cc4ccccc4)C(=O)N[C@@H](Cc4csc5ccccc45)C(=O)N[C@@H](CO)C(N)=O)(C3)NC(=O)[C@H]([C@@H](C)O)NC(=O)[C@H](Cc3cccc(C(F)(F)F)c3)NC(=O)[C@H](C)NC(=O)[C@H](C)NC(=O)[C@H]([C@@H](C)O)NC(=O)[C@H](CC(=O)O)NC1=O)NC(=O)[C@H](CC(C)(C)C)NC(=O)[C@H](CC(=O)O)NC2=O (stereo partly drawn) [I-1268, Ac-PL3-Asp-Npg-B5-Asp-Thr-Ala-Ala-3F3MeF-Thr-PyrS2-Phe-BztA-Ser-NH2]	198	28.4

The remaining lines, values ahead:

IC50 [1] [nM]	IC50 [2] [µM]	Compound
41	23.9	CC(=O)N1CCC[C@]12CC=CCCCC1(CCCC=CCCCOC(=O)N3CC[C@@](C(=O)N[C@@H](Cc4ccsc4)C(=O)N[C@@H](Cc4cccc5ccccc45)C(=O)N[C@@H](CCC(N)=O)C(N)=O)(C3)NC(=O)[C@H](CC(C)C)NC(=O)[C@H](Cc3ccccc3)NC(=O)[C@H](C)NC(=O)[C@H](C)NC(=O)[C@H](CC(=O)O)NC(=O)[C@H](CC(=O)O)NC1=O)NC(=O)[C@H](CC(C)(C)C)NC(=O)[C@H](CC(=O)O)NC2=O (stereo partly drawn) [I-1234, Ac-PL3-Asp-Npg-B5-Asp-Asp-Ala-Ala-Phe-Leu-PyrS2-3Thi-1NapA-Gln-NH2]
27	24.8	CC(=O)N1CCC[C@]12CC=CCCCC1(CCCC=CCCCOC(=O)N3CC[C@@](C(=O)N[C@@H](Cc4ccsc4)C(=O)N[C@@H](Cc4ccc5ccccc5c4)C(=O)N[C@@H](CCC(N)=O)C(N)=O)(C3)NC(=O)[C@H](CC(C)C)NC(=O)[C@H](Cc3ccccc3)NC(=O)[C@H](C)NC(=O)[C@H](C)NC(=O)[C@H](CC(=O)O)NC(=O)[C@H](CC(=O)O)NC1=O)NC(=O)[C@H](CC(C)(C)C)NC(=O)[C@H](CC(=O)O)NC2=O (stereo partly drawn) [I-1235, Ac-PL3-Asp-Npg-B5-Asp-Asp-Ala-Ala-Phe-Leu-PyrS2-3Thi-2NapA-Gln-NH2]
69	20.9	CC(=O)N1CCC[C@]12CC=CCCCC1(CCCC=CCCCOC(=O)N3CC[C@@](C(=O)N[C@@H](Cc4ccccc4Cl)C(=O)N[C@@H](Cc4cccc5ccccc45)C(=O)N[C@@H](CCC(N)=O)C(N)=O)(C3)NC(=O)[C@H](CC(C)C)NC(=O)[C@H](Cc3ccccc3)NC(=O)[C@H](C)NC(=O)[C@H](C)NC(=O)[C@H](CC(=O)O)NC(=O)[C@H](CC(=O)O)NC1=O)NC(=O)[C@H](CC(C)(C)C)NC(=O)[C@H](CC(=O)O)NC2=O (stereo partly drawn) [I-1236, Ac-PL3-Asp-Npg-B5-Asp-Asp-Ala-Ala-Phe-Leu-PyrS2-2C1F-1NapA-Gln-NH2]
31	39.9	CC(=O)N1CCC[C@]12CC=CCCCC1(CCCC=CCCCOC(=O)N3CC[C@@](C(=O)N[C@@H](Cc4ccccc4Cl)C(=O)N[C@@H](Cc4ccc5ccccc5c4)C(=O)N[C@@H](CCC(N)=O)C(N)=O)(C3)NC(=O)[C@H](CC(C)C)NC(=O)[C@H](Cc3ccccc3)NC(=O)[C@H](C)NC(=O)[C@H](C)NC(=O)[C@H](CC(=O)O)NC(=O)[C@H](CC(=O)O)NC1=O)NC(=O)[C@H](CC(C)(C)C)NC(=O)[C@H](CC(=O)O)NC2=O (stereo partly drawn) [I-1237, Ac-PL3-Asp-Npg-B5-Asp-Asp-Ala-Ala-Phe-Leu-PyrS2-2C1F-2NapA-Gln-NH2]
44	23.1	CC(=O)N1CCC[C@]12CC=CCCCC1(CCCC=CCCCOC(=O)N3CC[C@@](C(=O)N[C@@H](Cc4ccsc4)C(=O)N[C@@H](Cc4cccc5ccccc45)C(=O)N[C@@H](CO)C(N)=O)(C3)NC(=O)[C@H](CC(C)C)NC(=O)[C@H](Cc3ccccc3)NC(=O)[C@H](C)NC(=O)[C@H](C)NC(=O)[C@H](CC(=O)O)NC(=O)[C@H](CC(=O)O)NC1=O)NC(=O)[C@H](CC(C)(C)C)NC(=O)[C@H](CC(=O)O)NC2=O (stereo partly drawn) [I-1238, Ac-PL3-Asp-Npg-B5-Asp-Asp-Ala-Ala-Phe-Leu-PyrS2-3Thi-1NapA-Ser-NH2]
33	31.8	CC(=O)N1CCC[C@]12CC=CCCCC1(CCCC=CCCCOC(=O)N3CC[C@@](C(=O)N[C@@H](Cc4ccsc4)C(=O)N[C@@H](Cc4ccc5ccccc5c4)C(=O)N[C@@H](CO)C(N)=O)(C3)NC(=O)[C@H](CC(C)C)NC(=O)[C@H](Cc3ccccc3)NC(=O)[C@H](C)NC(=O)[C@H](C)NC(=O)[C@H](CC(=O)O)NC(=O)[C@H](CC(=O)O)NC1=O)NC(=O)[C@H](CC(C)(C)C)NC(=O)[C@H](CC(=O)O)NC2=O (stereo partly drawn) [I-1239, Ac-PL3-Asp-Npg-B5-Asp-Asp-Ala-Ala-Phe-Leu-PyrS2-3Thi-2NapA-Ser-NH2]
31	> 20	CC(=O)N1CCC[C@]12CC=CCCCC1(CCCC=CCCCOC(=O)N3CC[C@@](C(=O)N[C@@H](Cc4ccccc4Cl)C(=O)N[C@@H](Cc4csc5ccccc45)C(=O)N[C@@H](C)CO)(C3)NC(=O)[C@H](CC(C)C)NC(=O)[C@H](Cc3ccccc3)NC(=O)[C@H](C)NC(=O)[C@H](C)NC(=O)[C@H](CC(=O)O)NC(=O)[C@H](CC(=O)O)NC1=O)NC(=O)[C@H](CC(C)(C)C)NC(=O)[C@H](CC(=O)O)NC2=O (stereo partly drawn) [I-1250, Ac-PL3-Asp-Npg-B5-Asp-Asp-Ala-Ala-Phe-Leu-PyrS2-2C1F-BztA-Alao1]
